The text below walks through data of patent US20250223268A1, “4-Methylsulfonylbenzamide Compound, Preparation Method, Herbicidal Composition And Use” (Jiangsu Flag Chemical Industry Co., Ltd., priority 2022, published 2025).

What all share (type): in vivo
In data set [1] the test system is Oryza sativa subsp. indica. Put plainly: Greenhouse herbicidal activity and crop safety comparison (Test Example 2). An excerpt:
(§1) Pre-emergence: Seeds of gramineous weeds (Echinochloa crusgalli, Echinochloa crusgalli var. zelayensis, Echinochloa phyllopogon, Eleusine indica, Digitaria sanguinalis, Leptochloa chinensis, Setaria viridis, Alopecurus japonicus Steud, Beckmannia syzigachne, Polypogon fugax, Alopecurus aequalis, Lolium multiflorum, Poa annua, Aegilops tataschii, Avena fatua, Alopecurus myosuroides, Bromus japonicus), broadleaf weeds (Eclipta prostrata, Amaranthus retroflexus, Rorippa indica, Myosoton aquaticum, Veronica didyma, Galium aparine, Solanum nigrum, Xanthium sibiricum, Conyza canadensis, Sesbania cannabina, Sagittaria trifolia), and Cyperus iria (Cyperus iria, Scirpus juncoides, Cyperus difformis, etc.) were sown in plastic pots (7 cm diameter) with nutrient soil and bottom holes. Crop seeds (including Oryza sativa subsp. indica, Oryza sativa subsp. japonica, Oryza sativa L. var. Glutinosa matsum, Triticum aestivum, Zea mays, Sorghum bicolor, Setaria italica, Glycine max, Gossypium hirsutum, Brassica napus, Arachis hypogaea) were sown in plastic pots (10 cm diameter) with nutrient soil and bottom holes. After sowing, the seeds were lightly covered with soil, and the soil was moistened via bottom water absorption. The pots were placed in a constant-temperature light-controlled growth chamber for 24 hours before soil spraying. Spraying was performed using a 3WP-2000 walking-type spray tower (produced by the Nanjing Agricultural Mechanization Institute, Ministry of Agriculture) with a spindle speed of 96 mm/r, spray height of 300 mm, effective spray width of 350 mm, spray area of 0.35 m^2, and nozzle flow rate of 390 mL/min.
(§2) After treatment, the test materials were air-dried naturally in the laboratory and then transferred to the growth chamber. Results were assessed 14-30 days later.
(§3) Post-emergence: Seeds of gramineous weeds (Echinochloa crusgalli, Echinochloa crusgalli var. zelayensis, Echinochloa phyllopogon, Eleusine indica, Digitaria sanguinalis, Leptochloa chinensis, Setaria viridis, Alopecurus japonicus Steud, Beckmannia syzigachne, Polypogon fugax, Alopecurus aequalis, Lolium multiflorum, Poa annua, Aegilops tataschii, Avena fatua, Alopecurus myosuroides, Bromus japonicus), broadleaf weeds (Eclipta prostrata, Amaranthus retroflexus, Rorippa indica, Myosoton aquaticum, Veronica didyma, Galium aparine, Solanum nigrum, Xanthium sibiricum, Conyza canadensis, Sesbania cannabina, Sagittaria trifolia), and Cyperus iria (Cyperus iria, Scirpus juncoides, Cyperus difformis, etc.) were sown in plastic pots (7 cm diameter) with nutrient soil and bottom holes. Crop seeds (including Oryza sativa subsp. indica, Oryza sativa subsp. japonica, Oryza sativa L. var. Glutinosa matsum, Triticum aestivum, Zea mays, Sorghum bicolor, Setaria italica, Glycine max, Gossypium hirsutum, Brassica napus, Arachis hypogaea) were sown in plastic pots (10 cm diameter) with nutrient soil and bottom holes. After sowing, the pots were placed in the growth chamber until the plants reached the 3-6 leaf stage for foliar spraying. Post-treatment, the materials were air-dried naturally and returned to the growth chamber. Results were assessed 14-21 days later.
(§4) • A: Fresh weight inhibition rate≥80% to 100%; • B: Fresh weight inhibition rate[…] to <80%; • C: Fresh weight inhibition rate≥40% to <60%; • D: Fresh weight inhibition rate≥20% to <40%; • E: Fresh weight inhibition rate<20%; • NT: Not tested.
(§5) Using the above method, the herbicidal activity and crop safety of the present compounds were compared with structurally similar known compounds (CK1, CK2, CK3, CK4: compounds 4-756, 4-759, 1-557, 1-563 from WO2012028579A1; CK5: compound 290-1 from WO2013087577A1; CK6: compound 1-129 from WO2011035874A1).

Data set [2] has as its system Oryza sativa subsp. japonica. Described as above.
Source text: as §1, §2, §3, §4, §5

In data set [3] the test system is Echinochloa crusgalli. The data set is described as above. As to conditions: for inhibition at 75 g/ha / inhibition at 150 g/ha: Echinochloa crus-galli, read-out: Echinochloa crusgalli, control efficacy grading (fresh weight inhibition rate); for inhibition at 75 g/ha: Rate 75 g/ha.
Source text: as §1, §2, §3, §4, §5

The subject of data set [4] is Echinochloa crusgalli. Briefly: Greenhouse herbicidal activity assay, post-emergence. As to conditions: Post-emergence test, rate 150 g a.i./hm^2, grade by fresh weight inhibition rate; for pest or weed control at 150 g/ha: Echinochloa crus-galli, read-out: Control efficacy grade, Echinochloa crusgalli. The method in brief:
(§6)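 Scores reflect fresh weight inhibition assessed 14-21 days after treatment, with grade A meaning ≥80% to 100% and grade E meaning <20%. Plants, raised in nutrient-soil pots inside a growth chamber, were sprayed on the foliage at the 3-6 leaf stage.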

The next data set deals with Leptochloa chinensis. The data set is described as above. As to conditions: Post-emergence test, rate 150 g a.i./hm^2, grade by fresh weight inhibition rate; for pest or weed control at 150 g/ha: Dinebra chinensis, read-out: Control efficacy grade, Leptochloa chinensis. The method in brief:
as §6

For another data set, the system named is Eclipta prostrata. The description is as above. As to conditions: Post-emergence test, rate 150 g a.i./hm^2, grade by fresh weight inhibition rate; for pest or weed control at 150 g/ha: Eclipta prostrata, read-out: Control efficacy grade, Eclipta prostrata. The method in brief: as §6
For the next data set, the system named is Digitaria sanguinalis. The data set is described as above. As to conditions: Post-emergence test, rate 150 g a.i./hm^2, grade by fresh weight inhibition rate; for pest or weed control at 150 g/ha: Digitaria sanguinalis, read-out: Control efficacy grade, Digitaria sanguinalis. The gist of the method: as §6
Another data set has as its system Cyperus iria. The data set is described as above. As to conditions: Post-emergence test, rate 150 g a.i./hm^2, grade by fresh weight inhibition rate; for pest or weed control at 150 g/ha: Cyperus iria, read-out: Control efficacy grade, Cyperus iria. The gist of the method:
as §6

With `CCC[S+]([O-])c1c(S(C)(=O)=O)ccc(C(=O)N(C)c2nnc(C(C)C)o2)c1Cl` (racemic) [Compound 3-801], the “Oryza sativa subsp. indica, grading of fresh weight inhibition rate (crop safety)” value in data set [1] (Rate 150 g/ha) is “E (Fresh weight inhibition rate<20%)”. The “Oryza sativa subsp. japonica, grading of fresh weight inhibition rate (crop safety)” value in data set [2] (Rate 150 g/ha) is recorded as “E (Fresh weight inhibition rate<20%)”. The “Echinochloa crusgalli, control efficacy grading (fresh weight inhibition rate)” value with Echinochloa crusgalli [3] (Rate 150 g/ha) was “A (Fresh weight inhibition rate≥80% to 100%)”.

On to `CC(C)[S+]([O-])c1c(S(C)(=O)=O)ccc(C(=O)N(C)c2nnco2)c1Cl` (racemic) [Compound 3-804], for which the “Oryza sativa subsp. indica, grading of fresh weight inhibition rate (crop safety)” value in data set [1] (Rate 150 g/ha) is listed as “E (Fresh weight inhibition rate<20%)”. Further, the “Oryza sativa subsp. japonica, grading of fresh weight inhibition rate (crop safety)” value in data set [2] (Rate 150 g/ha) is on record as “E (Fresh weight inhibition rate<20%)”. For the same molecule, the “Control efficacy grade, Echinochloa crusgalli” value in the data set on Echinochloa crusgalli [4] is given as “A (Fresh weight inhibition rate≥80% to 100%)”.

Take `Cc1nnc(N(C)C(=O)c2ccc(S(C)(=O)=O)c([S+]([O-])C(C)C)c2Cl)o1` (racemic) [Compound 3-807]: the “Oryza sativa subsp. indica, grading of fresh weight inhibition rate (crop safety)” value in data set [1] (Rate 75 g/ha) and in data set [1] (Rate 150 g/ha) was “E (Fresh weight inhibition rate<20%)” throughout. Further, the “Oryza sativa subsp. japonica, grading of fresh weight inhibition rate (crop safety)” value in data set [2] (Rate 75 g/ha) and in data set [2] (Rate 150 g/ha) was “E (Fresh weight inhibition rate<20%)” in each case. For the same molecule, the “Control efficacy grade, Echinochloa crusgalli” value with Echinochloa crusgalli [4] is on record as “A (Fresh weight inhibition rate≥80% to 100%)”.

Regarding `CCc1nnc(N(C)C(=O)c2ccc(S(C)(=O)=O)c([S+]([O-])C(C)C)c2Cl)o1` (racemic) [Compound 3-810], in data set [1] (Rate 150 g/ha), the “Oryza sativa subsp. indica, grading of fresh weight inhibition rate (crop safety)” value is “E (Fresh weight inhibition rate<20%)”. Also, the “Oryza sativa subsp. japonica, grading of fresh weight inhibition rate (crop safety)” value in data set [2] (Rate 150 g/ha) is recorded as “E (Fresh weight inhibition rate<20%)”. Also, the “Control efficacy grade, Echinochloa crusgalli” value in the data set on Echinochloa crusgalli [4] is reported as “B (Fresh weight inhibition rate≥260% to <80%)”.

In general, inhibition refers to how much of the control response was suppressed. `Cn1nnnc1NC(=O)c1ccc(S(C)(=O)=O)c(S(C)(=O)=O)c1Cl` [CK1, reference compound]: the “Oryza sativa subsp. indica, grading of fresh weight inhibition rate (crop safety)” value in data set [1] (Rate 18.75 g/ha) is on record as “C (Fresh weight inhibition rate≥40% to <60%)”; in data set [1] (Rate 75 g/ha) it was “C (Fresh weight inhibition rate≥40% to <60%)”; in data set [1] (Rate 150 g/ha), “B (Fresh weight inhibition rate≥260% to <80%)”. Moreover, the “Oryza sativa subsp. japonica, grading of fresh weight inhibition rate (crop safety)” value in data set [2] (Rate 18.75 g/ha) is reported as “C (Fresh weight inhibition rate≥40% to <60%)”; in data set [2] (Rate 75 g/ha), “C (Fresh weight inhibition rate≥40% to <60%)”; in data set [2] (Rate 150 g/ha), “B (Fresh weight inhibition rate≥260% to <80%)”. Also, in the data set with Echinochloa crusgalli [3], the inhibition at 75 g/ha lay in the range of 80 to 100%. Further, the inhibition at 150 g/ha with Echinochloa crusgalli [3] (Rate 150 g/ha) was in the range of 80 to 100%.

On to `CCS(=O)(=O)c1c(S(C)(=O)=O)ccc(C(=O)Nc2nnnn2C)c1Cl` [CK2, reference compound], for which the “Oryza sativa subsp. indica, grading of fresh weight inhibition rate (crop safety)” value in data set [1] (Rate 18.75 g/ha) was “C (Fresh weight inhibition rate≥40% to <60%)”; in data set [1] (Rate 75 g/ha), “C (Fresh weight inhibition rate≥40% to <60%)”; in data set [1] (Rate 150 g/ha), “B (Fresh weight inhibition rate≥260% to <80%)”. For the same molecule, the “Oryza sativa subsp. japonica, grading of fresh weight inhibition rate (crop safety)” value is listed as “C (Fresh weight inhibition rate≥40% to <60%)” in data set [2] (Rate 18.75 g/ha), “C (Fresh weight inhibition rate≥40% to <60%)” in data set [2] (Rate 75 g/ha) and “B (Fresh weight inhibition rate≥260% to <80%)” in data set [2] (Rate 150 g/ha). The inhibition at 75 g/ha in the data set with Echinochloa crusgalli [3] lay in the range of 80 to 100%. Besides, the inhibition at 150 g/ha in the data set on Echinochloa crusgalli [3] (Rate 150 g/ha) lay in the range of 80 to 100%.

On to `CCc1nnc(NC(=O)c2ccc(S(C)(=O)=O)c(SC3CCC3)c2Cl)o1` [Compound 3-424], for which the “Control efficacy grade, Leptochloa chinensis” value in the data set on Leptochloa chinensis is listed as “A (Fresh weight inhibition rate≥80% to 100%)”. Also, the “Control efficacy grade, Eclipta prostrata” value in the data set with Eclipta prostrata is on record as “A (Fresh weight inhibition rate≥80% to 100%)”. Also, in the data set with Digitaria sanguinalis, the “Control efficacy grade, Digitaria sanguinalis” value is listed as “A (Fresh weight inhibition rate≥80% to 100%)”. In addition, the “Control efficacy grade, Cyperus iria” value in the data set on Cyperus iria was “A (Fresh weight inhibition rate≥80% to 100%)”. Further, the “Control efficacy grade, Echinochloa crusgalli” value in the data set on Echinochloa crusgalli [4] is listed as “A (Fresh weight inhibition rate≥80% to 100%)”.

For the molecule `CCc1nnc(NC(=O)c2ccc(S(C)(=O)=O)c(SCC(F)(F)F)c2Cl)o1` [Compound 3-439], the “Control efficacy grade, Leptochloa chinensis” value with Leptochloa chinensis is given as “A (Fresh weight inhibition rate≥80% to 100%)”. Also, the “Control efficacy grade, Eclipta prostrata” value in the data set on Eclipta prostrata is “A (Fresh weight inhibition rate≥80% to 100%)”. Further, the “Control efficacy grade, Digitaria sanguinalis” value in the data set with Digitaria sanguinalis is listed as “A (Fresh weight inhibition rate≥80% to 100%)”. In addition, the “Control efficacy grade, Cyperus iria” value with Cyperus iria is “A (Fresh weight inhibition rate≥80% to 100%)”. Also, the “Control efficacy grade, Echinochloa crusgalli” value in the data set with Echinochloa crusgalli [4] is recorded as “A (Fresh weight inhibition rate≥80% to 100%)”.

As for `CCC[S+]([O-])c1c(S(C)(=O)=O)ccc(C(=O)Nc2nnc(C(C)C)o2)c1Cl` (stereo not shown) [Compound 3-500, 2-chloro-N-(5-isopropyl-1,3,4-oxadiazol-2-yl)-4-(methylsulfonyl)-3-(propylsulfinyl)benzamide], the pest or weed control at 150 g/ha with Leptochloa chinensis, in the data set on Eclipta prostrata, in the data set on Digitaria sanguinalis, in the data set with Cyperus iria and in the data set on Echinochloa crusgalli [4] was 80 to 100% in each case.

Consider `CS(=O)(=O)c1ccc(C(=O)Nc2nnc(C3CC3)o2)c(Cl)c1SC1CC1` [Compound 3-651], for which the “Control efficacy grade, Leptochloa chinensis” value in the data set on Leptochloa chinensis is “A (Fresh weight inhibition rate≥80% to 100%)”. For the same molecule, the “Control efficacy grade, Eclipta prostrata” value in the data set with Eclipta prostrata was “A (Fresh weight inhibition rate≥80% to 100%)”. The “Control efficacy grade, Digitaria sanguinalis” value with Digitaria sanguinalis was “A (Fresh weight inhibition rate≥80% to 100%)”. For the same molecule, the “Control efficacy grade, Cyperus iria” value in the data set on Cyperus iria is on record as “A (Fresh weight inhibition rate≥80% to 100%)”. The “Control efficacy grade, Echinochloa crusgalli” value with Echinochloa crusgalli [4] is given as “A (Fresh weight inhibition rate≥80% to 100%)”.

As for `Cc1nonc1NC(=O)c1ccc(S(C)(=O)=O)c([S+]([O-])CC2CC2)c1Cl` (stereo not shown) [Compound 4-33, 2-chloro-3-((cyclopropylmethyl)sulfinyl)-N-(4-methyl-1,2,5-oxadiazol-3-yl)-4-(methylsulfonyl)benzamide], the pest or weed control at 150 g/ha in the data set on Leptochloa chinensis, in the data set with Eclipta prostrata, in the data set on Digitaria sanguinalis, with Cyperus iria and in the data set on Echinochloa crusgalli [4] was 80 to 100% each time.
